# Source: patent publication US10273222B2 (CELGENE QUANTICEL RESEARCH, INC., priority 2013, dated 2019)
# pIC50: −log10 of the molar value.
# Assays:
# Assay type in all cases: biochemical
# Jarid1A = Jarid1A (Homo sapiens (Human), UniProt P29375); experiment: Jarid1A in vitro enzyme inhibition assay (TR-FRET)
# Excerpt: The enzymatic assay of Jarid1A activity is based upon Time Resolved-Fluorescence Resonance Energy Transfer (TR-FRET) detection.
# Jarid1B = Jarid1B (Homo sapiens (Human), UniProt Q9UGL1); experiment: Jarid1B in vitro enzyme inhibition assay (TR-FRET)
# Chain of Jarid1B (Q9UGL1 2-751): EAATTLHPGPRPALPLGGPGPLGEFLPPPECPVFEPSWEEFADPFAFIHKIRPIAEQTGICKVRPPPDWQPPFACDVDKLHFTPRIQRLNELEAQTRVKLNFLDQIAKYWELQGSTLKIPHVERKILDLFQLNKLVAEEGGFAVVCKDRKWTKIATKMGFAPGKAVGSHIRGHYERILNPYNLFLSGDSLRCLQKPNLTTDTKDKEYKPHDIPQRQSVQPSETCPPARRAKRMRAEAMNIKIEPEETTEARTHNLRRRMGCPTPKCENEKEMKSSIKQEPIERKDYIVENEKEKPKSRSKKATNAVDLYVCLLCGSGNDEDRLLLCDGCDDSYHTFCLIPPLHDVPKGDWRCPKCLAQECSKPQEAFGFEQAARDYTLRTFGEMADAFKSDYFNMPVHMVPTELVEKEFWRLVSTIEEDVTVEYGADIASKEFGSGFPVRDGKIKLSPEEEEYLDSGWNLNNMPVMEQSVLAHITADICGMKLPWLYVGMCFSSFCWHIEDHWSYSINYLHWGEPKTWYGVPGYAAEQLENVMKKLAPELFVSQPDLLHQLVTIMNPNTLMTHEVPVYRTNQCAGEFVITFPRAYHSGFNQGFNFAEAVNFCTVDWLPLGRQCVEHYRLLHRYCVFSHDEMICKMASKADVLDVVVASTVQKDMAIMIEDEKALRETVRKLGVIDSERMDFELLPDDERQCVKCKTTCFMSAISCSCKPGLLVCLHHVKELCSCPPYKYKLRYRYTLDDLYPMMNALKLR
# Method: This assay determines the ability of a test compound to inhibit Jarid1A, Jarid1B, JMJD2C, and JMJD2A demethylase activity.
# The ability of test compounds to inhibit the activity of Jarid1B was determined in 384-well plate format under the following reaction conditions: 0.8 nM Jarid1B, 300 nM H3K4me3-biotin labeled peptide (Anaspec cat #64357), 2 μM alpha-ketoglutaric acid in assay buffer of 50 mM HEPES, pH7.3, 0.005% Brij35, 0.5 mM TCEP, 0.2 mg/ml BSA, 50 μM sodium L-ascorbate, and 2 μM ammonium iron(II) sulfate. Reaction product was determined quantitatively by TR-FRET after the addition of detection reagent Phycolink Streptavidin-allophycocyanin (Prozyme) and Europium-anti-mono- or di-methylated histone H3 lysine 4 (H3K4me1-2) antibody (PerkinElmer) in the presence of 5 mM EDTA in LANCE detection buffer (PerkinElmer) at a final concentration of 25 nM and 1 nM, respectively.
# The assay reaction was initiated by the following: 2 μl of the mixture of 900 nM H3K4me3-biotin labeled peptide and 6 μM alpha-ketoglutaric acid with 2 μl of 11-point serial diluted inhibitor in 3% DMSO was added to each well of the plate, followed by the addition of 2 μl of 2.4 nM Jarid1B to initiate the reaction. The reaction mixture was incubated at room temperature for 30 minutes, and terminated by the addition of 6 μl of 5 mM EDTA in LANCE detection buffer containing 50 nM Phycolink Streptavidin-allophycocyanin and 2 nM Europium-anti-H3K4me1-2 antibody. Plates were read by EnVisionMultilabel Reader in TR-FRET mode (excitation at 320 nm, emission at 615 nm and 665 nm) after 1 hour incubation at room temperature. A ratio was calculated (665/615) for each well and fitted to determine inhibition constant (IC50).
# JMJD2C = JMJD2C (Homo sapiens (Human), UniProt Q9H3R0); experiment: JMJD2C in vitro enzyme inhibition assay (TR-FRET)
# Chain of JMJD2C (Q9H3R0 2-372): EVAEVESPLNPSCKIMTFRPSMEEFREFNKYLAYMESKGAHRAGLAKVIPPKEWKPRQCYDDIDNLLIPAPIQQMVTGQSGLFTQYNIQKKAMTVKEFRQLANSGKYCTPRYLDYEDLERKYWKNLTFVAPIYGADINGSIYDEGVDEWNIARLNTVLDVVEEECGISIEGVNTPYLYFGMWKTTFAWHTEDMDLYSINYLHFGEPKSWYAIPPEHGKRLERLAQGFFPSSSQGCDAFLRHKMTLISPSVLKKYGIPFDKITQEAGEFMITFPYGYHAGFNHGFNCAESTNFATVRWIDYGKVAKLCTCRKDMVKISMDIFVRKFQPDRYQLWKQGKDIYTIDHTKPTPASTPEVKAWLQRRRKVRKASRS
# Method: This assay determines the ability of a test compound to inhibit Jarid1A, Jarid1B, JMJD2C, and JMJD2A demethylase activity. […] Baculovirus expressed JMJD2C (GenBank Accession #BC143571, AA 2-372) was purchased from BPS Bioscience (Cat#50105).
# The ability of test compounds to inhibit the activity of JMJD2C was determined in 384-well plate format under the following reaction conditions: 0.3 nM JMJD2C, 300 nM H3K9me3-biotin labeled peptide (Anaspec cat #64360), 2 μM alpha-ketoglutaric acid in assay buffer of 50 mM HEPES, pH7.3, 0.005% Brij35, 0.5 mM TCEP, 0.2 mg/ml BSA, 50 μM sodium L-ascorbate, and 2 μM ammonium iron(II) sulfate. Reaction product was determined quantitatively by TR-FRET after the addition of detection reagent Phycolink Streptavidin-allophycocyanin (Prozyme) and Europium-anti-di-methylated histone H3 lysine 9 (H3K9me2) antibody (PerkinElmer) in the presence of 5 mM EDTA in LANCE detection buffer (PerkinElmer) at a final concentration of 50 nM and 1 nM, respectively.
# The assay reaction was initiated by the following: 2 μl of the mixture of 900 nM H3K9me3-biotin labeled peptide and 6 μM alpha-ketoglutaric acid with 2 μl of 11-point serial diluted inhibitor in 3% DMSO were added to each well of the plate, followed by the addition of 2 μl of 0.9 nM JMJD2C to initiate the reaction. The reaction mixture was incubated at room temperature for 30 minutes, and terminated by the addition of 6 μl of 5 mM EDTA in LANCE detection buffer containing 100 nM Phycolink Streptavidin-allophycocyanin and 2 nM Europium-anti-H3K9me2 antibody. Plates were read by EnVisionMultilabel Reader in TR-FRET mode (excitation at 320 nm, emission at 615 nm and 665 nm) after 1 hour incubation at room temperature. A ratio was calculated (665/615) for each well and fitted to determine inhibition constant (IC50).
# FBXL10 = FBXL10 (Homo sapiens (Human), UniProt Q8NHM5); experiment: FBXL10 in vitro enzyme inhibition assay (AlphaScreen)
# Chain of FBXL10 (Q8NHM5 1-650): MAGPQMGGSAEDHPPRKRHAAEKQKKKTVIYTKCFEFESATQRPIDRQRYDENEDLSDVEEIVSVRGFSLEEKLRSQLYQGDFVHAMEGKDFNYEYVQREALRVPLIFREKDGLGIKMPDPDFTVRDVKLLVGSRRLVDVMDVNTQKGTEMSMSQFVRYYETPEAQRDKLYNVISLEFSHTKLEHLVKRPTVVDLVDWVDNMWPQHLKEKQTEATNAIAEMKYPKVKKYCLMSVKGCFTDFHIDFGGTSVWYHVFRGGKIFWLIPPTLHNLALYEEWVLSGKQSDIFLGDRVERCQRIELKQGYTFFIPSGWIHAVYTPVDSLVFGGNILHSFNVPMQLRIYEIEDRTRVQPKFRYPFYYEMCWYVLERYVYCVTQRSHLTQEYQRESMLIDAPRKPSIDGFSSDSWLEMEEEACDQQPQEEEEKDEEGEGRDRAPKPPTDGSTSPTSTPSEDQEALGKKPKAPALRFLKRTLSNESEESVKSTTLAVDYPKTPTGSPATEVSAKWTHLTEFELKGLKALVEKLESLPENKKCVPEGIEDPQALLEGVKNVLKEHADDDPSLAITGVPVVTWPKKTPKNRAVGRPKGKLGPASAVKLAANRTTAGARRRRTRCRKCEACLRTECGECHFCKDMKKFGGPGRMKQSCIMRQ
# Method: Reaction product was determined quantitatively by AlphaScreen detection after the addition of detection reagents anti-H3K36me1 antibody, AlphaScreen® Streptavidin-coated Donor beads, and AlphaScreen® Protein A Acceptor beads in 50 mM HEPES, pH7.3, 10 mM NaCl, 0.005% Brij35, 5 mM EDTA, 2 mg/ml BSA to final 10 μg/ml beads.
# Plates were incubated at room temperature for 40 minutes, followed by addition of 3 μl of 50 μg/ml AlphaScreen® Streptavidin-coated Donor beads and AlphaScreen® Protein A Acceptor beads in 50 mM HEPES, pH7.3, 10 mM NaCl, 0.005% Brij35, 5 mM EDTA, 2 mg/ml BSA. Plates were read by EnVisionMultilabel Reader in AlphaScreen mode after a minimum of 2 hour or up to overnight incubation at room temperature. The AlphaScreen signal for each well was used to determine inhibition constant (IC50).
# Chain of Jarid1A (P29375 1-1090): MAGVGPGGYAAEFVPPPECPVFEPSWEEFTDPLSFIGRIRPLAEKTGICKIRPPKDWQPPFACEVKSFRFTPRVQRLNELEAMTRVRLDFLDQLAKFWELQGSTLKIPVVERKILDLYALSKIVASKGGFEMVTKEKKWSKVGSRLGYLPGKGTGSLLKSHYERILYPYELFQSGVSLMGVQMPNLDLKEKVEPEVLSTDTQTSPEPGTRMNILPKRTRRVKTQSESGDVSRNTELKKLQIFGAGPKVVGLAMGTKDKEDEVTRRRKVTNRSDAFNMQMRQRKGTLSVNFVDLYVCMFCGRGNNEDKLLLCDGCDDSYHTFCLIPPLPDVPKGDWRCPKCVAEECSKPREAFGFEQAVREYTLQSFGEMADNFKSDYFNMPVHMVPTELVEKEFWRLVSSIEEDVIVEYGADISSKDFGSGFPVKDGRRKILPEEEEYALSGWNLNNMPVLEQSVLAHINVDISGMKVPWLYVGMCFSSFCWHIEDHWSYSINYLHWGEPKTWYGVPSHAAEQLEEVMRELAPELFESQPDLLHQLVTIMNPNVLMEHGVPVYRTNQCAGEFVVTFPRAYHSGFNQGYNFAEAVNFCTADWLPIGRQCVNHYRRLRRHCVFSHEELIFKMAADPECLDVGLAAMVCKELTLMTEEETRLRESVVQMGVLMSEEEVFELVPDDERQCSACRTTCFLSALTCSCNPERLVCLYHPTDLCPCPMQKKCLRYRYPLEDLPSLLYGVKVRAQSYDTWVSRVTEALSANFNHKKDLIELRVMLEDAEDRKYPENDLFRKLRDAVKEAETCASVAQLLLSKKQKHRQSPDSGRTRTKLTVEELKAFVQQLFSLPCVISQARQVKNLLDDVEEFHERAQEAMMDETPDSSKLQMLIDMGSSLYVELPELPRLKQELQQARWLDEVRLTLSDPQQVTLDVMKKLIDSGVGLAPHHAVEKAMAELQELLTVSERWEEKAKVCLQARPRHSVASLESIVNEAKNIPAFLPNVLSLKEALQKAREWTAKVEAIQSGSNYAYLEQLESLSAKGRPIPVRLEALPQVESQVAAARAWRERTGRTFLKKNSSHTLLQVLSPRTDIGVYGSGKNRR
pIC50 (Jarid1A),pIC50 (Jarid1B),pIC50 (JMJD2C),pIC50 (FBXL10),SMILES
≥ 7.00,≥ 7.00,6.00 to 7.00,≥ 7.00,"O=C(O)c1ccnc(-c2cn(CCN(Cc3ccc(Cl)cc3)C3CC3)cn2)c1 [Example 85, 2-[1-[2-[(4-chlorophenyl)methyl-cyclopropylamino]ethyl]imidazol-4-yl]pyridine-4-carboxylic acid]"
≥ 7.00,≥ 7.00,5.00 to 6.00,6.00 to 7.00,"Cc1ccc(-c2c(-c3cc(C(=O)O)ccn3)ncn2C)cc1 [Example 4, 2-[1-methyl-5-(4-methylphenyl)-1H-imidazol-4-yl]pyridine-4-carboxylic acid]"
≥ 7.00,≥ 7.00,6.00 to 7.00,≥ 7.00,"O=C(O)c1ccnc(-c2cn(CC3CCCO3)cn2)c1 (stereo not drawn) [Example 51, 2-[1-(tetrahydrofuran-2-ylmethyl)-1H-imidazol-4-yl]pyridine-4-carboxylic acid]"
≥ 7.00,≥ 7.00,5.00 to 6.00,≥ 7.00,"Cn1cnc(-c2cc(C(=O)O)ccn2)c1-c1ccc(Cl)cc1C(F)(F)F [Example 27, 2-{5-[4-chloro-2-(trifluoromethyl)phenyl]-1-methyl-1H-imidazol-4-yl}pyridine-4-carboxylic acid]"
≥ 7.00,≥ 7.00,6.00 to 7.00,≥ 7.00,"O=C(O)c1ccnc(-c2cn(CC3CCCCC3)cn2)c1 [Example 115, 2-[1-(cyclohexylmethyl)imidazol-4-yl]pyridine-4-carboxylic acid]"
≥ 7.00,≥ 7.00,≥ 7.00,6.00 to 7.00,"O=C(O)c1ccnc(-c2cn(CC3CCCN3)cn2)c1 (stereo not drawn) [Example 53, 2-[1-(pyrrolidin-2-ylmethyl)-1H-imidazol-4-yl]pyridine-4-carboxylic acid]"
≥ 7.00,≥ 7.00,≥ 7.00,≥ 7.00,"O=C(O)c1ccnc(-c2cn(CCNCc3ccc(F)cc3)cn2)c1 [Example 74, 2-[1-[2-[(4-fluorophenyl)methylamino]ethyl]imidazol-4-yl]pyridine-4-carboxylic acid]"
≥ 7.00,≥ 7.00,5.00 to 6.00,≥ 7.00,"COCCCn1cnc(-c2cc(C(=O)O)ccn2)c1-c1ccc(Cl)c(F)c1 [Example 36, 2-[5-(4-chloro-3-fluorophenyl)-1-(3-methoxypropyl)-1H-imidazol-4-yl]pyridine-4-carboxylic acid]"
6.00 to 7.00,6.00 to 7.00,5.00 to 6.00,6.00 to 7.00,"CCOc1ccc(-c2c(-c3cc(C(=O)O)ccn3)ncn2C)cc1 [Example 14, 2-[5-(4-ethoxyphenyl)-1-methyl-1H-imidazol-4-yl]pyridine-4-carboxylic acid]"
≥ 7.00,≥ 7.00,≥ 7.00,≥ 7.00,"COc1ccccc1CNCCn1cnc(-c2cc(C(=O)O)ccn2)c1 [Example 77, 2-[1-[2-[(2-methoxyphenyl)methylamino]ethyl]imidazol-4-yl]pyridine-4-carboxylic acid]"
≥ 7.00,≥ 7.00,6.00 to 7.00,≥ 7.00,"O=C(O)c1ccnc(-c2cn(CCC3CCCCC3)cn2)c1 [Example 114, 2-[1-(2-cyclohexylethyl)imidazol-4-yl]pyridine-4-carboxylic acid]"
≥ 7.00,≥ 7.00,6.00 to 7.00,≥ 7.00,"C#Cc1ccc(-c2c(-c3cc(C(=O)O)ccn3)ncn2C)cc1 [Example 21, 2-[5-(4-ethynylphenyl)-1-methyl-1H-imidazol-4-yl]pyridine-4-carboxylic acid]"
≥ 7.00,≥ 7.00,5.00 to 6.00,6.00 to 7.00,"CCc1ccc(-c2c(-c3cc(C(=O)O)ccn3)ncn2C)cc1 [Example 5, 2-[5-(4-ethylphenyl)-1-methyl-1H-imidazol-4-yl]pyridine-4-carboxylic acid]"
≥ 7.00,≥ 7.00,6.00 to 7.00,6.00 to 7.00,"Cn1cnc(-c2cc(C(=O)O)ccn2)c1-c1ccc(Cl)c(Cl)c1 [Example 28, 2-[5-(3,4-dichlorophenyl)-1-methyl-1H-imidazol-4-yl]pyridine-4-carboxylic acid]"
≥ 7.00,≥ 7.00,≥ 7.00,≥ 7.00,"O=C(O)c1ccnc(-c2cn(CCNCC3CC(F)(F)C3)cn2)c1 [Example 73, 2-[1-[2-[(3,3-difluorocyclobutyl)methylamino]ethyl]imidazol-4-yl]pyridine-4-carboxylic acid]"
≥ 7.00,≥ 7.00,5.00 to 6.00,≥ 7.00,"COCCn1cnc(-c2cc(C(=O)O)ccn2)c1-c1ccc(Cl)c(F)c1 [Example 37, 2-[5-(4-chloro-3-fluorophenyl)-1-(2-methoxyethyl)-1H-imidazol-4-yl]pyridine-4-carboxylic acid]"
≥ 7.00,≥ 7.00,≥ 7.00,6.00 to 7.00,"CN1CCC(n2cnc(-c3cc(C(=O)O)ccn3)c2)CC1 [Example 49, 2-[1-(1-methylpiperidin-4-yl)-1H-imidazol-4-yl]pyridine-4-carboxylic acid]"
6.00 to 7.00,6.00 to 7.00,5.00 to 6.00,6.00 to 7.00,"O=C(O)c1ccnc(-c2cn(CCn3cccn3)cn2)c1 [Example 46, 2-{1-[2-(1H-pyrazol-1-yl)ethyl]-1H-imidazol-4-yl}pyridine-4-carboxylic acid]"
≥ 7.00,≥ 7.00,≥ 7.00,≥ 7.00,"O=C(O)c1ccnc(-c2cn(CCN3Cc4ccc(Cl)cc4C3)cn2)c1 [Example 82, 2-[1-[2-(5-chloro-1,3-dihydroisoindol-2-yl)ethyl]imidazol-4-yl]pyridine-4-carboxylic acid]"
≥ 7.00,≥ 7.00,≥ 7.00,≥ 7.00,"CN(CCn1cnc(-c2cc(C(=O)O)ccn2)c1)Cc1ccccc1 [Example 57, 2-(1-{2-[benzyl(methyl)amino]ethyl}-1H-imidazol-4-yl)pyridine-4-carboxylic acid]"
≥ 7.00,≥ 7.00,6.00 to 7.00,≥ 7.00,"O=C(O)c1ccnc(-c2cn(CCN(Cc3ccc(Cl)c(Cl)c3)C3CC3)cn2)c1 [Example 86, 2-[1-[2-[cyclopropyl-[(3,4-dichlorophenyl)methyl]amino]ethyl]imidazol-4-yl]pyridine-4-carboxylic acid]"
≥ 7.00,≥ 7.00,≥ 7.00,≥ 7.00,"O=C(O)c1ccnc(-c2cn(CCNCc3ccccc3Cl)cn2)c1 [Example 78, 2-[1-[2-[(2-chlorophenyl)methylamino]ethyl]imidazol-4-yl]pyridine-4-carboxylic acid]"
≥ 7.00,≥ 7.00,≥ 7.00,≥ 7.00,"O=C(O)c1ccnc(-c2cn(CCN3Cc4ccc(C(F)(F)F)cc4C3)cn2)c1 [Example 84, 2-[1-[2-[5-(trifluoromethyl)-1,3-dihydroisoindol-2-yl]ethyl]imidazol-4-yl]pyridine-4-carboxylic acid]"
≥ 7.00,≥ 7.00,5.00 to 6.00,6.00 to 7.00,"Cn1cnc(-c2cc(C(=O)O)ccn2)c1-c1ccc(C(F)(F)F)cc1 [Example 6, 2-{1-methyl-5-[4-(trifluoromethyl)phenyl]-1H-imidazol-4-yl}pyridine-4-carboxylic acid]"
≥ 7.00,≥ 7.00,6.00 to 7.00,≥ 7.00,"Cn1cnc(-c2cc(C(=O)O)ccn2)c1-c1ccc(Cl)cc1Cl [Example 33, 2-[5-(2,4-dichlorophenyl)-1-methyl-1H-imidazol-4-yl]pyridine-4-carboxylic acid]"
≥ 7.00,≥ 7.00,6.00 to 7.00,≥ 7.00,"O=C(O)c1ccnc(-c2cn(CCc3cccc(Cl)c3)cn2)c1 [Example 113, 2-[1-[2-(3-chlorophenyl)ethyl]imidazol-4-yl]pyridine-4-carboxylic acid]"
≥ 7.00,≥ 7.00,6.00 to 7.00,6.00 to 7.00,"Cn1cnc(-c2cc(C(=O)O)ccn2)c1Br [Example 2, 2-(5-bromo-1-methyl-1H-imidazol-4-yl)pyridine-4-carboxylic acid]"
≥ 7.00,≥ 7.00,≥ 7.00,≥ 7.00,"CCc1ccccc1CNCCn1cnc(-c2cc(C(=O)O)ccn2)c1 [Example 80, 2-[1-[2-[(2-ethylphenyl)methylamino]ethyl]imidazol-4-yl]pyridine-4-carboxylic acid]"
≥ 7.00,≥ 7.00,≥ 7.00,≥ 7.00,"O=C(O)c1ccnc(-c2cn(CCN3Cc4ccc(F)cc4C3)cn2)c1 [Example 79, 2-[1-[2-(5-fluoro-1,3-dihydroisoindol-2-yl)ethyl]imidazol-4-yl]pyridine-4-carboxylic acid]"
≥ 7.00,≥ 7.00,≥ 7.00,≥ 7.00,"N#Cc1cccc2c1CN(CCn1cnc(-c3cc(C(=O)O)ccn3)c1)C2 [Example 83, 2-[1-[2-(4-cyano-1,3-dihydroisoindol-2-yl)ethyl]imidazol-4-yl]pyridine-4-carboxylic acid]"
